The data set is described as follows: Dehydration behaviour of activators by Difference Scanning Calorimetry (DSC). It is filed as physicochemical. The note with it: FIG. 14a-c. The source says:
The dehydration behaviour of these substances was examined in three example substances by Difference Scanning Calorimetry (DSC). This thermal analysis provides information on the stages of dehydration taking place under energy absorption, and on the respective typical temperature.

`O.O.O.O.O.O=[Si]([O-])[O-].[Na+].[Na+]` [Na2SiO3.5H2O, sodium metasilicate pentahydrate] showed a dehydration temperature of 86.5 °C.

Values taken from US7175853B1, “Therapeutic system which can be moisture-activated” (LTS Lohmann Therapie-Systeme AG, priority 1998, dated 2007).
